The source of these data is ChEMBL document CHEMBL4765347, “Radiomodulatory effect of a non-electrophilic NQO1 inducer identified in a screen of new 6, 8-diiodoquinazolin-4(3H)-ones carrying a sulfonamide moiety” (Eur J Med Chem, 2020).

Common to all, as to conditions: filed as activator, time 50.0 min
Assay [1] has as its system Nrf2 (Mus musculus). As to the kind of experiment: Activation of Nrf2 in mouse Hepa1c1c7 cells assessed as increase in NQO1 activity at 0.8 uM using menadione as substrate incubated for 20 mins followed by substrate addition and measured after 30 mins by spectrophotometry relative to control.
The target of assay [2] is Nuclear factor erythroid 2-related factor 2 (Mus musculus) (UniProt Q60795). As to the kind of experiment: Activation of Nrf2 in mouse Hepa1c1c7 cells assessed as increase in NQO1 activity at 25 uM using menadione as substrate incubated for 20 mins followed by substrate addition and measured after 30 mins by spectrophotometry relative to control.
Assay [3] has as its system Nrf2 (Mus musculus). Put plainly: Activation of Nrf2 in mouse Hepa1c1c7 cells assessed as increase in NQO1 activity at 3.125 uM using menadione as substrate incubated for 20 mins followed by substrate addition and measured after 30 mins by spectrophotometry relative to control.
In assay [4] the test system is Nrf2 (Mus musculus). Put plainly: Activation of Nrf2 in mouse Hepa1c1c7 cells assessed as increase in NQO1 activity at 1.6 uM using menadione as substrate incubated for 20 mins followed by substrate addition and measured after 30 mins by spectrophotometry relative to control.
For assay [5], the target named is Nuclear factor erythroid 2-related factor 2 (Mus musculus) (UniProt Q60795). As to the kind of experiment: Activation of Nrf2 in mouse Hepa1c1c7 cells assessed as increase in NQO1 activity at 50 uM using menadione as substrate incubated for 20 mins followed by substrate addition and measured after 30 mins by spectrophotometry relative to control.
For assay [6] the target is unchanged. Put plainly: Activation of Nrf2 in mouse Hepa1c1c7 cells assessed as increase in NQO1 activity at 6.25 uM using menadione as substrate incubated for 20 mins followed by substrate addition and measured after 30 mins by spectrophotometry relative to control.
In assay [7] the test system is Nrf2 (Mus musculus). Put plainly: Activation of Nrf2 in mouse Hepa1c1c7 cells assessed as increase in NQO1 activity at 0.4 uM using menadione as substrate incubated for 20 mins followed by substrate addition and measured after 30 mins by spectrophotometry relative to control.
Assay [8] addresses Nuclear factor erythroid 2-related factor 2 (Mus musculus) (UniProt Q60795). As to the kind of experiment: Activation of Nrf2 in mouse Hepa1c1c7 cells assessed as increase in NQO1 activity at 12.5 uM using menadione as substrate incubated for 20 mins followed by substrate addition and measured after 30 mins by spectrophotometry relative to control.

Sequence of Nuclear factor erythroid 2-related factor 2 (Mus musculus) (Q60795 whole entry, looked up): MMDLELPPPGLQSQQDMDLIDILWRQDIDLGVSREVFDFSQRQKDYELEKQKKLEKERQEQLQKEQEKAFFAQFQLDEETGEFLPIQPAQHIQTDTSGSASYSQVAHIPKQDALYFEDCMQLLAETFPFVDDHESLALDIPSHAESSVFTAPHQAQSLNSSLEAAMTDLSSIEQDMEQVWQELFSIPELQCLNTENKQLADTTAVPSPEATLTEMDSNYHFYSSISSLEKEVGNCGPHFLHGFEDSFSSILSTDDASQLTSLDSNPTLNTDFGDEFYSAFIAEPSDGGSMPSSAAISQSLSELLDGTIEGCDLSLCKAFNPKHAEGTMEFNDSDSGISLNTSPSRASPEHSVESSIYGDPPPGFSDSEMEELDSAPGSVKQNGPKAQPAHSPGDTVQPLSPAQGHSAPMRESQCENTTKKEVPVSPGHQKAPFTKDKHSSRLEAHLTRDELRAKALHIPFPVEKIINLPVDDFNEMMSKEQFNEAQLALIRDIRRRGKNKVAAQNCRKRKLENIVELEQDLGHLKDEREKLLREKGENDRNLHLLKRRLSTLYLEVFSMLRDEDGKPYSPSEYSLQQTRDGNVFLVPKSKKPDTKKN

As to `COc1cc(NC(=O)CSc2nc3c(I)cc(I)cc3c(=O)n2-c2ccc(S(N)(=O)=O)cc2)cc(OC)c1`, the T/C with Nrf2 (Mus musculus) [1] is 1.01; in assay [2] it was 1.73; with Nrf2 (Mus musculus) [3], 1.06; with Nrf2 (Mus musculus) [4], 1.02; in assay [5], 1.81; in assay [6], 1.22. Moreover, the T/C in the assay on Nrf2 (Mus musculus) [7] was 1; in assay [8], 1.52.
`Cc1ccc(NC(=O)CSc2nc3c(I)cc(I)cc3c(=O)n2-c2ccc(S(N)(=O)=O)cc2)cc1`: the T/C turned out to be 0.99 in the assay with Nrf2 (Mus musculus) [1]; 1.08 in assay [2]; 0.97 in the assay with Nrf2 (Mus musculus) [3]; 0.99 in the assay with Nrf2 (Mus musculus) [4]; 1.13 in assay [5]; 0.99 in assay [6]. In addition, the T/C in the assay on Nrf2 (Mus musculus) [7] came out at 1.01; in assay [8] it was 1.
Regarding `COc1ccc(NC(=O)CSc2nc3c(I)cc(I)cc3c(=O)n2-c2ccc(S(N)(=O)=O)cc2)cc1`, the T/C was 1.02 with Nrf2 (Mus musculus) [1]; 1.18 in assay [2]; 0.98 in the assay on Nrf2 (Mus musculus) [3]; 1 in the assay with Nrf2 (Mus musculus) [4]; 1.29 in assay [5]; 0.99 in assay [6]. For the same compound, the T/C in the assay on Nrf2 (Mus musculus) [7] is 1.01; in assay [8] it was 1.08.
For `NS(=O)(=O)c1ccc(-n2c(SCC(=O)Nc3ccccc3)nc3c(I)cc(I)cc3c2=O)cc1`, the T/C in the assay on Nrf2 (Mus musculus) [1] is 1; in assay [2], 1.26; with Nrf2 (Mus musculus) [3], 1.06; with Nrf2 (Mus musculus) [4], 1.03; in assay [5], 1.47; in assay [6], 1.11. Further, the T/C is 1.03 in the assay on Nrf2 (Mus musculus) [7] and 1.18 in assay [8].
For the compound `CCc1ccc(NC(=O)CSc2nc3c(I)cc(I)cc3c(=O)n2-c2ccc(S(N)(=O)=O)cc2)cc1`, the T/C was determined as 0.99 with Nrf2 (Mus musculus) [1]; 1.03 in assay [2]; 0.97 in the assay with Nrf2 (Mus musculus) [3]; 0.98 with Nrf2 (Mus musculus) [4]; 1.14 in assay [5]; 0.99 in assay [6]. In addition, the T/C with Nrf2 (Mus musculus) [7] was determined as 0.98; in assay [8], 1.01.
With `Cc1ccccc1NC(=O)CSc1nc2c(I)cc(I)cc2c(=O)n1-c1ccc(S(N)(=O)=O)cc1`, the T/C in the assay on Nrf2 (Mus musculus) [1] amounted to 1.04; in assay [2] it was 1.31; with Nrf2 (Mus musculus) [3], 1.06; in the assay with Nrf2 (Mus musculus) [4], 1.04; in assay [5], 1.43; in assay [6], 1.13. The values for the T/C (in the assay with Nrf2 (Mus musculus) [7]; in assay [8]) were 1.04 and 1.27, respectively.
On to `NS(=O)(=O)c1ccc(-n2c(S)nc3c(I)cc(I)cc3c2=O)cc1`, for which the T/C was 1.04 in the assay with Nrf2 (Mus musculus) [1]; 1.05 in assay [2]; 1.01 with Nrf2 (Mus musculus) [3]; 1.06 in the assay on Nrf2 (Mus musculus) [4]; 1.02 in assay [6]; 1.01 with Nrf2 (Mus musculus) [7]. In addition, in assay [8], the T/C is 1.06.
As to `Cc1cccc(NC(=O)CSc2nc3c(I)cc(I)cc3c(=O)n2-c2ccc(S(N)(=O)=O)cc2)c1`, the T/C in the assay with Nrf2 (Mus musculus) [1] was 1.01; in assay [2], 1.27; in the assay on Nrf2 (Mus musculus) [3] it was 1.05; in the assay on Nrf2 (Mus musculus) [4], 1.04; in assay [5], 1.48; in assay [6] it was 1.06. In addition, the T/C in the assay with Nrf2 (Mus musculus) [7] was determined as 1.05; in assay [8] it was 1.14.
